{"source": "patent US20040009486A1", "about": "“Compositions and methods utilizing DNA polymerases” (priority 1999, published 2004)", "key": {"primer:template": {"test_system": "primer:template", "assay": "Fidelity screen with rhodamine labeled non-complementary ddNTP", "assay_type": "biochemical", "details": "R110-labeled incorrect ddNTP", "protocol": "Reactions (10 μl) contained 1 unit of enzyme in 1× reaction buffer, 15 nM primer template, 25 nM of unlabeled complementary ddNTP, and 25, 100, 500, or 1000 nM of rhodamine labeled non-complementary ddNTP in four separate reactions. The reactions were incubated in a Perkin-Elmer 9600 for 25 cycles as follows: 96° C. for 10 s, 50° C. for 5 s, and 60° C. for 30 s. The reactions were then quenched with ice-cold 0.2 M EDTA (final concentration) and the products were purified from unincorporated rhodamine labeled ddNTPs and analyzed as described above.\nFidelity was determined as the tendency of a DNA polymerase to incorporate the correct nucleotide in the presence of increasing amounts of a non-complementary nucleotide. These assays employed constant amounts of primer:template, an unlabeled complementary ddNTP and DNA polymerase, and various concentrations of a rhodamine-labeled non-complementary ddNTP, as described in the Experimental Protocol. The amount of misextended primers is plotted against the ratio of rhodamine-labeled incorrect ddNTP/unlabeled correct ddNTP (FIG. 18 panels A and B). We performed similar assays for all possible mispairs (Table IX).\nTo address these concerns, the insertion fidelity of the JDF-3 P410L/A485T and Taq F667Y mutants was compared. In the first set of fidelity assays, a constant amount of primer:template, an unlabeled complementary ddNTP, and increasing concentrations of R110-labeled non-complementary ddNTP was used (Materials and Methods). […] The amount of misextended primers was determined and plotted against the ratio of R110-labeled incorrect ddNTP/unlabeled correct ddNTP (FIG. 27, panels A and B). Similar assays for all 12 possible mispairs was performed (ddG:dT, ddT:dG, ddT:dC, ddC:dT, ddC:dA, ddA:dC, ddA:dG, ddG:dA, ddT:dT, ddC:dC, ddA:dA, ddG:dG). […] The other mispairs are formed less frequently, and at similar rates for the JDF-3 P410L/A485T and Taq F667Y mutants (data not shown).\nFidelity assays using labeled ddNTPs (10 μl) contained 1 unit DNA polymerase in 1× reaction buffer, 15 nM primer: template, 25 nM of unlabeled complementary ddNTP, and 25, 100, 500, or 1000 nM of rhodamine-labeled non-complementary ddNTP in four separate reactions. The reactions were incubated in a Perkin-Elmer 9600 for 25 cycles as follows: 96° C. for 10 s, 50° C. for 5 s, and 60° C. for 30 s. The reactions were quenched and analyzed as above."}, "pBL34A:pBluescript II": {"test_system": "pBL34A:pBluescript II", "assay": "Kinetics of TAMRA-ddATP insertion versus TAMRA-ddGTP misinsertion opposite dT", "assay_type": "biochemical", "protocol": "To determine the kinetics of misinsertion, the steady state Michaelis-Menten Km and Vmax parameters were calculated by incubations of limiting amounts of enzyme (0.1 units or 5 nM) in presence of 50 nM primer:template and varying concentrations of non-complementary rhodamine labeled ddNTP (1 nM to 10,000 nM) for 10 minutes at 60° C. Analysis and quantitations were performed as above.\nTo gain more insight into the mechanism of lower fidelity, we determined the misinsertion frequency for the mispair ddG:dT, which was evaluated in terms of relative Km and Vmax values for the wrong versus correct dye-ddNTP. Efficiency of nucleotide misinsertion was determined opposite a DNA template dT, primed with a 34-nucleotide oligomer (pBL34A). Apparent Michaelis constant (Km) and maximum velocity (Vmax) and relative insertion frequencies were measured for ddATP and ddGTP (Table X).\nTo determine the kinetics of misinsertion, Km and Vmax values were calculated by incubating limiting amounts of enzyme (0.1 units, 5 nM) in presence of 50 nM primer:template (pBL34A:pBluescript II) and varying concentrations of non-complementary rhodamine-ddGTP (1-10,000 nM) for 10 minutes at 60° C. Analysis and quantitation were performed as above."}, "[1]": {"details": "literature values; cited from earlier work"}, "[2]": {"test_system": "pBL25C and Temp-A, Temp-T, Temp-C, or Temp-G", "assay": "Rhodamine labeled ddNTP incorporation, TAMRA- and R110-ddNTPs (FIG. 16)", "assay_type": "biochemical", "protocol": "These experiments were performed using 1 unit of enzyme, 15 nM primer:template (pBL25C and Temp-A, Temp-T, Temp-C, or Temp-G in four separate reactions), and 50 nM dye-ddNTP (TAMRA- or R110-labeled). The reactions were incubated at 60° C. for 10 minutes and then quenched with ice-cold 0.2 M EDTA (final concentration). The products were purified from unincorporated dye-labeled ddNTPs and analyzed as described above.\nRelative incorporation of rhodamine labeled-ddNTPs by the JDF-3 P410L/A485T and Taq F667Y mutants was determined. We used both TAMRA- and R 110-labeled ddNTPs, and the amount of incorporated dye-ddNTPs was measured in fluorescense units. These experiments were performed using pBL25C as the primer, and Temp-A, Temp-T, Temp-C, or Temp-G as the complementary template in four separate reactions. The only difference between these four primer:template systems is the SNP site, thereby eliminating the possibility that primer:template sequence has an effect on dye-ddNTP incorporation. […] Gardner and Jack had also observed variation in the incorporation of ribonucleotides by the A488L mutant (equivalent to JDF-3 A485) of Vent DNA polymerase (from archaeon Thermococcus litoralis)^15.\nWe performed similar rhodamine labeled-ddNTP incorporation experiments using the same number of units of Taq F667Y."}, "pFL-35:pBluescript": {"test_system": "pFL-35:pBluescript", "assay": "Fidelity assay with unlabeled ddNTPs", "assay_type": "biochemical", "details": "compared to JDF-3 P410L/A485T", "protocol": "A second set of fidelity assays was conducted to address the contribution of rhodamine dye to high ddG:dT and ddT:dC misinsertion frequency. A fluorescently labeled primer (2.5 nM pFL35) opposite dT in the template strand was extended, in reactions containing either correct (ddA) or incorrect (ddG) unlabeled ddNTPs (at concentrations of 1.25 nM to 10 nM) ([…]). Similar experiments were performed in which primer extension occured opposite dC in the template strand, in the presence of correct (ddG) or incorrect (ddT) unlabeled ddNTPs (FIG. 28 panel B). Incorporation of ddNMP at the 3′-end of the primer was detected as a shift in primer mobility.\nFidelity assays using unlabeled ddNTPs (10 μl) contained 2.5 nM primer:template (pFL-35:pBluescript), 1 U DNA polymerase, and 1× reaction buffer. Complementary or non-complementary ddNTP was added to the reaction at concentrations of 0, 1.25, 10, 50, or 100 nM. The reactions were incubated in a Perkin-Elmer 9600 for 25 cycles as follows: 96° C. for 10 s, 50° C. for 5 s, and 60° C. for 30 s, and then analyzed as describe above."}}, "note": "Like-named read-outs stand apart in the source and are kept apart here."}
{"substance": "Taq F667Y: ThermoSequenase, Taq F667Y mutant DNA polymerase from Amersham Pharmacia Biotech", "values": [{"measurement": "ddG:dT mispair formation frequency, higher than JDF-3 P410L/A485T", "setting": "primer:template", "result": 20, "unit": "fold"}, {"measurement": "ddT:dC mispair formation frequency, higher than JDF-3 P410L/A485T", "setting": "primer:template", "result": 3, "unit": "fold"}, {"measurement": "Km for wrong nucleotide (ddGTP) opposite dT, lower than JDF-3 P410L/A485T", "setting": "pBL34A:pBluescript II", "result": 7, "unit": "fold"}, {"measurement": "misinsertion frequency for ddG:dT, higher than JDF-3 P410L/A485T", "setting": "pBL34A:pBluescript II", "result": "~17", "unit": "fold"}, {"measurement": "M.F. (M.E./I.E.) misinsertion frequency", "setting": "pBL34A:pBluescript II; ddG:dT mispair", "result": 0.053}, {"measurement": "misinsertion frequency for ddG:dT, higher than JDF-3 P410L/A485T", "setting": "pBL34A:pBluescript II; listed as Taq F667Y mutant", "result": "approximately 17 fold"}, {"measurement": "I.E. Vmax, TAMRA-ddATP insertion", "setting": "pBL34A:pBluescript II; opposite dT, pBL34A primer", "result": 1.9}, {"measurement": "M.E. Vmax, TAMRA-ddGTP misinsertion", "setting": "pBL34A:pBluescript II; opposite dT, pBL34A primer", "result": 16.9}, {"measurement": "Km", "setting": "pBL34A:pBluescript II; opposite dT, pBL34A primer, read-out: I.E. Km, TAMRA-ddATP insertion", "result": 0.0006, "unit": "µM"}, {"measurement": "Km", "setting": "pBL34A:pBluescript II; opposite dT, pBL34A primer, read-out: M.E. Km, TAMRA-ddGTP misinsertion", "result": 0.1, "unit": "µM"}, {"measurement": "dideoxynucleotide incorporation relative to unmutated / wild type enzyme", "setting": "[1]", "result": "3000-8000 fold"}, {"measurement": "preference order of ddNTP bases", "setting": "[2]", "result": "G>C>A>T"}, {"measurement": "misincorporation of unlabeled ddNTPs", "setting": "pFL-35:pBluescript", "result": "greater tendency to misincorporate unlabeled ddG opposite dT, and unlabeled ddT opposite dC"}]}
